Experimental data from publication PMC5215716, “A Target-Based Whole Cell Screen Approach To Identify Potential Inhibitors of Mycobacterium tuberculosis Signal Peptidase” (ACS Infectious Diseases, 2016).
Converted amounts (≈) assume the structure as drawn.

system: M. tuberculosis strain expressing LepB under the hsp60 promotor (LepB-OE); experiment: microbe, parasite or virus in culture; format: cell-based; settings: Mycobacterium tuberculosis, average ± SD of at least two experiments

Structure (SMILES) | MIC [µM]
C/C(=N\NC(=O)c1ccc(N2CCCC2=O)cc1)c1ccccn1 [Compound 11] | 5.6 ± 0.6 (≈ 1.81 µg/mL)
C/C(=N\NC(=O)C1CCCN(S(=O)(=O)c2ccccc2)C1)c1ccccn1 (centres unmarked) [Compound 38] | 9.2 ± 4 (≈ 3.56 µg/mL)
C/C(=N\NC(=O)C1CC1)c1ccccn1 [Compound 40] | 27 ± 2 (≈ 5.49 µg/mL)
C/C(=N\NC(=O)c1ccoc1C)c1ccccn1 [Compound 39] | 6.5 ± 2.2 (≈ 1.58 µg/mL)
Cc1cc(C)nc(NN=C(c2ccccc2)c2ccccc2)n1 [Compound 27] | 103 ± 38 (≈ 31.1 µg/mL)
C/C(=N\NC(=N)c1ccccn1)c1ccccn1 [Compound 30] | > 200
Oc1ccccc1/C=N/Nc1nc(-c2ccccc2)cs1 [Compound 2] | 160 ± 57 (≈ 47.3 µg/mL)
C/C(=N\Nc1nc(C)cc(C)n1)c1ccccn1 [Compound 1] | 18 ± 8 (≈ 4.34 µg/mL)
